Columns and labels:
HFF-1 cells = experiment: Cell viability assay (WST-1) in human fibroblastic cell line; format: cell-based
Protocol: To conclude with this part of our work on the molecular responsiveness of the “vermellogens,” we decided to substantiate whether the bis-pyridinium core in the compounds would have or not a viologen-like reversible redox behavior. Thus, cyclic voltamograms were recorded for RaH·2Cl (2 mM) in buffered aqueous solutions at pH = 2 (0.05 M H3PO4/NaH2PO4), 7 (0.05 M NaH2PO4/Na2HPO4), and 12 (0.05 M Na2HPO4/Na3PO4). Those shown both the acidic (RaH^2+) and basic (Ra^+) forms of the “red thread” owning non-reversible redox peaks (Figure 1b).
Fibroblast cells (HFF-1; ATTC® SCRC-1041TM) were maintained in Dulbecco’s modified eagle’s medium (DMEM) supplemented with 10% FBS and 1% P/S and kept at 37 °C in a humidified atmosphere containing 5% CO2 until their use. HFF-1 cells were seeded in 96 well-plates at an initial density of 10^4 cells/well and allowed to attach for 24 h at 37 °C. The following day, culture medium was removed, replenished by fresh medium (90 µl) and cells were exposed to different concentration of R aH·2Cl and MV (10 µl; final concentrations 0.01, 0.05, 0.1, 0.5 and 1 mM). Control conditions included cells cultured in culture medium, but in absence of compound. Cells were further incubated for 24 h at 37°C and cell viability was monitored using the tetrazolium salt (WST-1) method.6 Absorbance at 450 nm was measured using a Synergy HTX Plate Reader (Biotek, Winooski, VT, USA) and the percent of cell viability (%) was calculated as follows:
Viability (%) = […]
Where Asample and Anegative control depict those absorbance values measured at 450 nm in presence and in absence of compound, respectively. All conditions were tested by triplicate in two independent experiments. Data were expressed as mean ± standard deviation (SD). Statistical analysis was performed by two-ways and one-way ANOVA with Tukey’s LSD post hoc test using IBM SPSS Statistics version 23. A p ≤ 0.05 was considered statistically significant.
Figure S 138: Compounds tested in WST-1 assay for cell viability.
6 Carballo-Pedrares, N.; Kattar, A.; Concheiro, A.; Alvarez-Lorenzo, C.; Rey-Rico, Niosomes-based gene delivery systems for effective transfection of human mesenchymal stem cells. A. Matter. Sci. Eng. 2021, 18, 112307.

[1] = Halide recognition by UV–vis titration in acetonitrile (TBACl); format: binding
Excerpt: (§1) Finally, diffraction-grade single crystals for RaH·2Cl could be obtained, with the solid-state structure showing hydrogen bonding between the hydrazone moiety with a chloride counterion and a crystallization water (Figure 1a).[34] Moved by this observation, and other reported evidence regarding the anion binding abilities of this type of hydrazone moieties,[30],[35] we decided to study the ability of the “red thread” RaH^2+ to recognize halide anions in acetonitrile by UV–vis titrations and ^1H-NMR. […] Conversely, the addition of increasing amounts of TBACl/Br to 33–20 μM solutions of RaH·2PF6, led to the absorption bands associated with the free form of RaH^2+ at λmax = 370 nm, decreasing in favor of new bands with a slight shift to λmax = 378 and 370 nm, tentatively assigned to RaH^2+···Cl/Br complexes and with the data fitting appropriately to 1:1 association processes (Ka = (7.03 ± 0.14)·10^4 M^–1 for Cl^–, (1.41 ± 0.07)·10^4 M^–1 for Br^–). […]
(§2) NMR titrations could not be performed due to the precipitation of R aH2+ upon 2 eqv. of the corresponding salt. Spectra were recorded at 0, 0.5, 1, 2 and 4 eq. of the corresponding salt to follow the chemical shift of the […]
(§3) Concentration (μM) Absorbance Residual […]

[2] = Halide recognition by UV–vis titration in acetonitrile (TBABr); format: binding
Excerpt: as §1, §2, §3

[3] = Fluoride interaction by UV–vis titration in acetonitrile (TBAF); format: binding; conditions: 1 μM, 2:1 process
Excerpt: (§4) Finally, diffraction-grade single crystals for RaH·2Cl could be obtained, with the solid-state structure showing hydrogen bonding between the hydrazone moiety with a chloride counterion and a crystallization water (Figure 1a).[34] Moved by this observation, and other reported evidence regarding the anion binding abilities of this type of hydrazone moieties,[30],[35] we decided to study the ability of the “red thread” RaH^2+ to recognize halide anions in acetonitrile by UV–vis titrations and ^1H-NMR. […] Conversely, the addition of increasing amounts of TBACl/Br to 33–20 μM solutions of RaH·2PF6, led to the absorption bands associated with the free form of RaH^2+ at λmax = 370 nm, decreasing in favor of new bands with a slight shift to λmax = 378 and 370 nm, tentatively assigned to RaH^2+···Cl/Br complexes and with the data fitting appropriately to 1:1 association processes (Ka = (7.03 ± 0.14)·10^4 M^–1 for Cl^–, (1.41 ± 0.07)·10^4 M^–1 for Br^–). In both cases, the results agreed with those expected for the recognition through hydrogen bonding between the hydrazone group and the anions, resulting in a bathochromic shift of the absorption band.[30],[35] […]
as §2

[4] = Halide recognition in acetonitrile (iodide); format: binding; conditions: UV–vis titrations and 1H-NMR
Excerpt: as §4, §2

[5] = pKa determination by UV–vis acid–base titrations in water; format: physicochemical; conditions: for pKa value (linear fitting of pH against log absorbance ratio): 20 μM chloride salt in NaH2PO4/Na2HPO4, KHCO3/K2CO3 and Na2HPO4/Na2PO4 buffers, supplement; for pKa: aqueous phosphate and carbonate buffers, RH^2+/R^+ or MH^+/M, UV–vis titrations in water, chloride salts
Excerpt: Next, in our study of the stimuli-responsiveness of the “vermellogens”, we proceeded to verify the new analogues as pH-based molecular switches, by conducting UV–vis acid–base titrations in water for the compounds Ra–eH·2Cl. All the new “vermellogens” show similar π–π* main absorption bands centered at λ^1max = 366–377 nm at neutral or slightly acidic pH. An increase in the basicity of the solution produces the decrease of the aforementioned bands and the concomitant rise of new absorptions associated with the deprotonated compounds and centered at λ^2max = 460–475 nm. The pKa values obtained by the aforementioned UV–vis titrations for Ra–eH·2Cl are quite similar, showing no dependence on the substituent on the pyridinium N^+ atoms within their structures (Table 1 and Figures S115–S125). Furthermore, to evaluate the effect of the two different pyridinium heterocycles on the observed anomalous pKa’s, two analogues were prepared (Ma–bH·Cl), in which one of these moieties was substituted by a neutral phenyl ring.
4.2. pK a determination for Rb by UV-Vis
(§5) Figure S 116: UV-Vis spectra for the titration of R b·2Cl at 20 μM in NaH 2PO4/Na2HPO4, KHCO3/K2CO3 and Na2HPO4/Na2PO4 buffers. On the top right: Absorption of R b+ at λ = 474 nm plotted against pH. pH V (mL) of V (mL) of V (mL) of V (mL) of V (mL) of ABS log[A474-(measured) solution A solution B solution C solution D solution E (474 ARb2+)/(ARb1+- […]
(§6) Table S 4: Experimental data obtained for the UV-Vis titration of R b·2Cl at 20 μM in NaH2PO4/Na2HPO4, KHCO3/K2CO3 and Na2HPO4/Na2PO4 buffer. Solution A: 20 μM of R b·2Cl and 0.05 M of NaH2PO4. Solution B: 20 μM of R b·2Cl and 0.05 M of NaHPO4. Solution C: 20 μM of R b·2Cl and 0.05 M of Na2PO4. Solution D: 20 μM of R b·2Cl and 0.05 M of KHCO3. Solution E: 20 μM of R b·2Cl and 0.05 M of […]
4.4. pK a determination for Rc by UV-Vis
as §5, with “119:” for “116:”, “c·2Cl” for “b·2Cl”, “c+” for “b+”, “466” for “474”, “log[A466-(measured)” for “log[A474-(measured)”, “(466 ARc2+)/(ARc+-” for “(474 ARb2+)/(ARb1+-”
Table S 5: Experimental data obtained for the UV-Vis titration of R c·2Cl at 20 μM in NaH2PO4/Na2HPO4, KHCO3/K2CO3 and Na2HPO4/Na2PO4 buffer. Solution A: 20 μM of Rc·2Cl and 0.05 M of NaH2PO4. Solution B: 20 μM of R c·2Cl and 0.05 M of NaHPO4. Solution C: 20 μM of R c·2Cl and 0.05 M of Na2PO4. Solution D: 20 μM of R c·2Cl and 0.05 M of KHCO3. Solution E: 20 μM of R c·2Cl and 0.05 M of […]
4.6. pK a determination for Rd by UV-Vis
as §5, with “122:” for “116:”, “d·2Cl” for “b·2Cl”, “d+” for “b+”, “475” for “474”, “log[A475-(measured)” for “log[A474-(measured)”, “(475 ARd2+)/(ARd1+-” for “(474 ARb2+)/(ARb1+-”
as §6, with “6:” for “4:”, “d·2Cl” for “b·2Cl”
4.8. pK a determination for Re by UV-Vis
as §5, with “125:” for “116:”, “e·2Cl” for “b·2Cl”, “e+” for “b+”, “460” for “474”, “log[A460-(measured)” for “log[A474-(measured)”, “(460 ARe2+)/(ARe1+-” for “(474 ARb2+)/(ARb1+-”
Table S 7: Experimental data obtained for the UV-Vis titration of R e·2Cl at 20 μM in NaH2PO4/Na2HPO4, KHCO3/K2CO3 and Na2HPO4/Na2PO4 buffer. Solution A: 20 μM of R e·2Cl and 0.05 M of […]

C[n+]1ccc(-c2cc[n+](C)cc2)cc1 [MV^2+, paraquat, reference compound]
decrease of cell survival percentages relative to RaH^2+ (HFF-1 cells; HFF-1, from 0.5 mM): ~3 fold
cell survival (HFF-1 cells; HFF-1, from 0.5 mM concentration, 24 h, WST-1): severe decrease in cell survival

C[n+]1ccc(/C=N/Nc2cc[n+](C)cc2)cc1 [RaH·2PF6]
Ka (1:1 association with Cl^–) [1]: (7.03 ± 0.14)·10^4 M^–1
Ka (1:1 association with Br^–) [2]: (1.41 ± 0.07)·10^4 M^–1
Ka1 (first F^– equivalent, interaction with hydrazone group) [3]: (4.49 ± 0.77)·10^7 M^–1
Ka2 (deprotonation of the NH assisted by a second fluoride) [3]: (5.43 ± 0.59)·10^7 M^–1
interaction with I^– [4]: no interaction

C(=N\Nc1cc[n+](Cc2ccccc2)cc1)/c1cc[n+](Cc2ccccc2)cc1 [RbH·2X]
pKa value (linear fitting of pH against log absorbance ratio) [5]: 8.6
pKa [5]: 8.6

C[n+]1ccc(N/N=C/c2cc[n+](Cc3ccccc3)cc2)cc1 [RcH·2X]
pKa value (linear fitting of pH against log absorbance ratio) [5]: 8.6
pKa [5]: 8.7

C[n+]1ccc(/C=N/Nc2cc[n+](Cc3ccccc3)cc2)cc1 [RdH·2X]
pKa [5]: 8.6

C/C(=N\Nc1cc[n+](C)cc1)c1cc[n+](C)cc1 [ReH·2X]
pKa [5]: 9.6

Source: article PMC9682480, ““Vermellogens” and the Development of CB[8]-Based Supramolecular Switches Using pH-Responsive and Non-Toxic Viologen Analogues” (Journal of the American Chemical Society, 2022)
